pIC50: −log10 of the molar value. Like-named read-outs stand apart in the source and are kept apart here.
What was measured:
[1] = tested on: Wnt reporter (TCF/LEF1 promoter); assay: HEK STF293 Wnt reporter (TOPFlash) luciferase assay, Steady Glo normalised to Cell Titer; format: cell-based, human; settings: HEK STF293 cells, Wnt3a-conditioned media, read-out: TOPFlash IC50 category
Method: All compounds were tested using the human cell line HEK STF293. This cell line carries a Wnt reporter (TCF/LEF1 promoter), which drives expression of the firefly luciferase protein. The level of Wnt activity is directly correlated with the level of luciferase activity (determined using a simple assay). Compounds that inhibit Wnt signaling by reducing luciferase activity in these two cell lines are further tested biochemically. […] Compounds were further tested in a Viability assay using Wnt-dependent HCT116 cell line. Compounds were prepared as 10 mM stocks for each compound in DMSO. Dilutions were prepared in a 96-well plate in DMSO. The stock dilutions are as follows: 10 mM, 1 mM, 100 μM, 10 μM, 100 nM, and 10 nM. Plates were sealed and stored at −20° C. […] On the first day, Wnt3a-conditioned media (1:1) were added along with diluted compounds (1:100). […] The final concentrations should therefore be 100 μM, 10 μM, 1 μM, 100 nM, 10 nM, and 1 nM. On the second day, the media was removed and 75 μL of Passive Lysis Buffer (Promega) is added to each well. The plate was shaken at 130 rpm for 15 minutes. For the Steady Glo assay, 45 μL of the lysis was removed and added to a white 96-well plate containing 45 μL/well of Steady Glo solution (Promega). For the Cell Titer assay, 25 μL of the lysis was transferred to a white 96-well plate containing 25 μL/well of Cell Titer solution (Promega). Both Steady Glo and Cell Titer assays were read with a luminescence plate reader. When determining EC50, the Steady Glo values were divided by the Cell Titer values to normalize for cell number. All compounds were tested using the human cell line HEK STF293. This cell line carries a Wnt reporter (TCF/LEF1 promoter), which drives expression of the firefly luciferase protein. The level of Wnt activity is directly correlated with the level of luciferase activity (determined using a simple assay). Compounds that inhibit Wnt signaling by reducing luciferase activity in these two cell lines are further tested biochemically. […] Compounds were further tested in a Viability assay using Wnt-dependent HCT116 cell line. Compounds were prepared as 10 mM stocks for each compound in DMSO. Dilutions were prepared in a 96-well plate in DMSO. The stock dilutions are as follows: 10 mM, 1 mM, 100 μM, 10 μM, 100 nM, and 10 nM. Plates were sealed and stored at −20° C. […] On the first day, Wnt3a-conditioned media (1:1) were added along with diluted compounds (1:100). […] The final concentrations should therefore be 100 μM, 10 μM, 1 μM, 100 nM, 10 nM, and 1 nM. On the second day, the media was removed and 75 μL of Passive Lysis Buffer (Promega) is added to each well. The plate was shaken at 130 rpm for 15 minutes. For the Steady Glo assay, 45 μL of the lysis was removed and added to a white 96-well plate containing 45 μL/well of Steady Glo solution (Promega). For the Cell Titer assay, 25 μL of the lysis was transferred to a white 96-well plate containing 25 μL/well of Cell Titer solution (Promega). Both Steady Glo and Cell Titer assays were read with a luminescence plate reader. When determining EC50, the Steady Glo values were divided by the Cell Titer values to normalize for cell number. All compounds were tested using the human cell line HEK STF293. This cell line carries a Wnt reporter (TCF/LEF1 promoter), which drives expression of the firefly luciferase protein. The level of Wnt activity is directly correlated with the level of luciferase activity (determined using a simple assay). Compounds that inhibit Wnt signaling by reducing luciferase activity in these two cell lines are further tested biochemically. […] Compounds were further tested in a Viability assay using Wnt-dependent HCT116 cell line. Compounds were prepared as 10 mM stocks for each compound in DMSO. Dilutions were prepared in a 96-well plate in DMSO. The stock dilutions are as follows: 10 mM, 1 mM, 100 μM, 10 μM, 100 nM, and 10 nM. Plates were sealed and stored at −20° C. […]

[2] = tested on: Wnt-dependent HCT116 cell line; assay: Viability assay using Wnt-dependent HCT116 cell line (Cell Titer Glo); format: cell-based; settings: HCT116 cells, read-out: Viability IC50 category
Method: All compounds were tested using the human cell line HEK STF293. This cell line carries a Wnt reporter (TCF/LEF1 promoter), which drives expression of the firefly luciferase protein. The level of Wnt activity is directly correlated with the level of luciferase activity (determined using a simple assay). Compounds that inhibit Wnt signaling by reducing luciferase activity in these two cell lines are further tested biochemically. […] Compounds were further tested in a Viability assay using Wnt-dependent HCT116 cell line. HEK293 cells were seeded in a 6-well plate at approximately 8.0×10^5 cells (2 mL per well). On the first day, Wnt3a-conditioned media (1:1) and compounds (1:100) were added to the plated cells. The final concentrations of compounds were 1 μM, 500 nM, and 100 nM. Vehicle (DMSO) and a Wnt3a-conditioned media plus Vehicle samples were also prepared as controls. Lysates were collected (with non-denaturing lysis buffer) after 24 hours incubation, and protein concentrations determined by Bradford Assay. Immunoblotting with an anti-beta-catenin antibody (equivalent amounts of protein/lane for each condition) were subsequently performed to determine beta-catenin levels. HCT116 cells were seeded at 2,500 cells/well in a 96-well dish (Volume: 100 μL/well). On the second day, the 10 mM stock solution of each test compound was thawed at room temperature. Dilutions of the test compound were prepared in DMSO in a V-bottom 96-well plate. The stock compound solution, DMSO-diluted compound solutions, and DMSO were further diluted 500-fold in cell culture media, and 100 μL of the compound- or DMSO-containing cell culture media was added to each well of the cells. […] The final DMSO concentration was 0.1% in all wells. On the fifth day, 150 μL of media was removed from each well. 50 μL/well Cell Titer Glo reagent (Promega) was added to each well. The plate was shaken at 130 rpm for 15 minutes at room temperature, and the cell viability was determined using a luminescence plate reader. All compounds were tested using the human cell line HEK STF293. This cell line carries a Wnt reporter (TCF/LEF1 promoter), which drives expression of the firefly luciferase protein. The level of Wnt activity is directly correlated with the level of luciferase activity (determined using a simple assay). Compounds that inhibit Wnt signaling by reducing luciferase activity in these two cell lines are further tested biochemically. […] Compounds were further tested in a Viability assay using Wnt-dependent HCT116 cell line. HEK293 cells were seeded in a 6-well plate at approximately 8.0×10^5 cells (2 mL per well). On the first day, Wnt3a-conditioned media (1:1) and compounds (1:100) were added to the plated cells. The final concentrations of compounds were 1 μM, 500 nM, and 100 nM. Vehicle (DMSO) and a Wnt3a-conditioned media plus Vehicle samples were also prepared as controls. Lysates were collected (with non-denaturing lysis buffer) after 24 hours incubation, and protein concentrations determined by Bradford Assay. Immunoblotting with an anti-beta-catenin antibody (equivalent amounts of protein/lane for each condition) were subsequently performed to determine beta-catenin levels. HCT116 cells were seeded at 2,500 cells/well in a 96-well dish (Volume: 100 μL/well). On the second day, the 10 mM stock solution of each test compound was thawed at room temperature. Dilutions of the test compound were prepared in DMSO in a V-bottom 96-well plate. The stock compound solution, DMSO-diluted compound solutions, and DMSO were further diluted 500-fold in cell culture media, and 100 μL of the compound- or DMSO-containing cell culture media was added to each well of the cells. […] The final DMSO concentration was 0.1% in all wells. On the fifth day, 150 μL of media was removed from each well. 50 μL/well Cell Titer Glo reagent (Promega) was added to each well. The plate was shaken at 130 rpm for 15 minutes at room temperature, and the cell viability was determined using a luminescence plate reader. […]

[3] = Examples for Formulae (IV), (V), (VI), and (VII)
[4] = Homo sapiens, STF/293, Examples for Formulae (VIII), (IX), and (X)
[5] = Homo sapiens, HCT-116, Examples for Formulae (VIII), (IX), and (X)
[6] = Homo sapiens, STF/293, Examples for Formulae (IV), (V), (VI), and (VII)
[7] = Homo sapiens, HCT-116, Examples for Formulae (IV), (V), (VI), and (VII)
[8] = Homo sapiens, STF/293, Examples for Formulae (I), (II), and (III)
[9] = Homo sapiens, HCT-116, Examples for Formulae (I), (II), and (III)

CS(=O)(=O)c1cccc(-c2ncoc2C(=O)Nc2nc(-c3ccccn3)cs2)c1 [Example 48]
pIC50 [1, 3]: 6.00 to 6.30
pIC50 [2, 3]: 6.30 to 6.70

CN(c1ncc(C(=O)O)o1)S(=O)(=O)c1ccc(Cl)cc1 [Example 37]
pIC50 [1, 3]: > 6.70
pIC50 [2, 3]: 6.30 to 6.70

CN(c1ncc(C(=O)Nc2nc(-c3ccccn3)cs2)o1)S(=O)(=O)c1ccc(Cl)cc1 [Example 38]
pIC50 [1, 3]: 6.30 to 6.70
pIC50 [2, 3]: 6.00 to 6.30

Cc1nc(N(C)S(=O)(=O)c2ccc(C(F)(F)F)cc2)oc1C(=O)Nc1nc(-c2ccccn2)cs1 [Example 50]
pIC50 [1, 3]: 6.30 to 6.70
pIC50 [2, 3]: 6.30 to 6.70

CS(=O)(=O)c1ccc(-n2nccc2C(=O)Nc2nc(-c3ccccn3)co2)cc1 [Example 1]
pIC50 [1, 4]: 6.30 to 6.70
pIC50 [2, 5]: > 6.70

Cc1onc(-c2cccc(F)c2)c1C(=O)Nc1nc(-c2ccccn2)cs1 [Example 5]
pIC50 [1, 6]: 6.30 to 6.70
pIC50 [2, 7]: 6.30 to 6.70

CN(C(=O)c1ccc(Cl)cc1)c1ncc(C(=O)Nc2nc(-c3ccccn3)cs2)o1 [Example 34]
pIC50 [1, 3]: 5.00 to 6.00
pIC50 [2, 3]: 5.00 to 6.00

CN(C(=O)c1ccccc1F)c1ncc(C(=O)Nc2nc(-c3ccccn3)cs2)o1 [Example 36]
pIC50 [1, 6]: 6.30 to 6.70
pIC50 [2, 7]: 6.00 to 6.30

O=C(Nc1nc(-c2ccccn2)cs1)c1cnnn1-c1cccc(F)c1 [Example 18]
pIC50 [1, 8]: 6.30 to 6.70
pIC50 [2, 9]: 6.30 to 6.70

Cc1nn(-c2ccc(F)cc2F)c(C)c1C(=O)Nc1nc(-c2ccccn2)cs1 [Example 8]
pIC50 [1, 8]: 6.00 to 6.30
pIC50 [2, 9]: 6.00 to 6.30

Cc1onc(-c2ccccc2F)c1C(=O)Nc1nc(-c2ccccn2)cs1 [Example 7]
pIC50 [1, 6]: 6.30 to 6.70
pIC50 [2, 7]: 6.30 to 6.70

Cc1nc(-c2ccc(C#N)cc2)c(C(=O)Nc2nc(-c3ccccn3)cs2)o1 [Example 30]
pIC50 [1, 3]: > 6.70
pIC50 [2, 3]: 6.30 to 6.70

O=C(Nc1nc(-c2ccccn2)cs1)c1cc(Cl)c(=O)n(Cc2ccc(C(F)(F)F)cc2)c1 [Example 8]
pIC50 [1, 4]: 6.00 to 6.30
pIC50 [2, 5]: 6.30 to 6.70

O=C(Nc1nc(-c2ccccn2)cs1)c1ccc(=O)n(Cc2ccc(F)cc2)c1 [Example 4]
pIC50 [1, 4]: 6.00 to 6.30
pIC50 [2, 5]: 6.00 to 6.30

Source: US20250257061A1, “COMPOSITIONS AND METHODS FOR TREATING CANCER AND REDUCING WNT MEDIATED EFFECTS” (StemSynergy Therapeutics, Inc., priority 2024, published 2025)
